# Columns and labels:
# P2Y6 receptor (hP2Y6R) = target: T1, P2Y6 receptor (hP2Y6R) (Homo sapiens, UniProt Q15077); test: FLIPR calcium mobilization, inhibition of UDP ([…]) response in […]1-hP2Y6R cells; type: cell-based; conditions: read-out: P2Y6R, mean IC50 ± SEM (μM) or % inhibition at 400 μM^a
# T1 construct: gene P2RY6
# P2Y14 receptor (hP2Y14R) = target: T2, P2Y14 receptor (hP2Y14R) (Homo sapiens, UniProt Q15391); test: competitive binding vs fluorescent antagonist MRS4174, whole CHO-hP2Y14R cells, flow cytometry; single concentration […]; type: cell-based; conditions: read-out: P2Y14, % inhibition at 100 μM (n = 3)
# T2 construct: gene P2RY14
# T2 sequence (Q15391 1-338): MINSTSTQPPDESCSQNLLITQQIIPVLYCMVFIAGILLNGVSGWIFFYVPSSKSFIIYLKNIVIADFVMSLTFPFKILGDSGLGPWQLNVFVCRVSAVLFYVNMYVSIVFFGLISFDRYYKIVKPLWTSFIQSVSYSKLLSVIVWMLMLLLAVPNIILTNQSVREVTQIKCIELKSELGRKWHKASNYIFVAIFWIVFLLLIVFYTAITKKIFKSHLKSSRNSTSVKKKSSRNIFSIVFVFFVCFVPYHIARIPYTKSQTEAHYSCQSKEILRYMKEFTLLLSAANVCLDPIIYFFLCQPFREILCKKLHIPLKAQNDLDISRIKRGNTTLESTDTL
# T1 sequence (Q15077 whole entry): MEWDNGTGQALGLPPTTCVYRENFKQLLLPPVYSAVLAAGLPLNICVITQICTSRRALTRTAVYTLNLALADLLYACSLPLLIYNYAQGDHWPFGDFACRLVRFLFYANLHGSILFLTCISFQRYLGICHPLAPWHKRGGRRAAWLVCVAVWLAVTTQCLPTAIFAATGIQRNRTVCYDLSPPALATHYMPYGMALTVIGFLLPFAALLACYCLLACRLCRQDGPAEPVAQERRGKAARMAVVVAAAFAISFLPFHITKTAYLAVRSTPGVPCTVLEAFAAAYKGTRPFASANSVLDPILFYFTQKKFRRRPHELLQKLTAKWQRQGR
IC50 (P2Y6 receptor (hP2Y6R)) [µM],inhibition at 100 µM (P2Y14 receptor (hP2Y14R)) [%],SMILES
574 ± 181,,COc1cccc([C@@H](Oc2ccc3c(cnn3-c3ccc(F)cc3)c2)[C@H](C)NC(=O)C(F)(F)F)c1 [AZD5423]
75.7 ± 11.5,,CCNC(=O)c1cc2c(-c3cc(C(C)(C)O)ccc3Oc3c(C)cc(F)cc3C)cn(C)c(=O)c2[nH]1 [ABBV-744]
,50 ± 4,Cc1cc(C(=O)Nc2cc(Oc3ccc4nc(NC(=O)C5CC5)cn4n3)ccc2C)n(C)n1 [TAK-593]

# Reference: paper PMC11554998, “Machine learning-aided search for ligands of P2Y6 and other P2Y receptors” (Purinergic Signalling, 2024)
